# Assay results from patent US12195744B2, “Identification of T-cell trafficking genes and uses thereof for increasing infiltration of T-cells into solid tumors” (UNIVERSITY OF IOWA RESEARCH FOUNDATION, priority 2017, dated 2025).
# Entries after “also recorded” stand apart in the source; their conditions may differ.
# Tests used:
# [1] = system: EG7 tumors; assay: Growth of EG7 tumors in mice; assay type: in vivo; conditions: oral gavage on same days as twice weekly IP aPD1, from 3 days post inoculation, vs DMSO
# Source text: (§1) FIG. 12 illustrates the results of Aak1 inhibitor (iAak1) on the growth of EG7 tumors in mice. Mice were inoculated with EG7 tumor cells. Treatment began three (3) days post tumor inoculation. All mice received twice weekly IP injections of aPD1. Five (5) mice received DMSO, and five (5) mice received iAak1 via oral gavage on same days as aPD1 treatment.
# [2] = system: A20 tumors; assay: Growth of A20 tumors in mice; assay type: in vivo
# Source text: as §1, with “15” for “12”, “A20” for “EG7”, “ten (10)” for “three (3)”, “Ten (10)” for “Five (5)”, “ten (10)” for “five (5)”, “daily.” for “on same days as aPD1 treatment.”
# [3] = system: primary mouse CD8+ T cells; assay: Cell proliferation after in vitro treatment of primary mouse CD8+ T cells; assay type: cell-based; conditions: primary mouse CD8+ T cells treated on day 0, optionally activated, assessed days 1-7
# Description: FIG. 10 illustrates the results of in vitro treatment of primary mouse CD8+ T cells with Aak1 inhibitor (iAak1) on cell proliferation. Primary mouse CD8+ T cells were treated on day 0 with the indicated concentration of LP-935509 and optionally activated. Cell proliferation was assessed at days 1, 2, 3, 4, 5, 6, and 7.
# [4] = system: primary mouse splenocytes; assay: PD-1 expression on CD8+ T cells after in vitro treatment of primary mouse splenocytes; assay type: cell-based; conditions: mouse splenocytes treated with 2 μM iAak1 in vitro
# Description: FIG. 11 illustrates the results of in vitro treatment of primary mouse splenocytes with Aak1 inhibitor (iAak1) on PD-1 expression. Mouse splenocytes were treated with 2 μM concentration of iAak1 and PD-1 expression was assayed in CD8+ T cells.
# [5] = system: primary mouse CD8+ T cells; assay: PD-1 expression after in vitro treatment of primary mouse CD8+ T cells; assay type: cell-based; conditions: activated primary mouse CD8+ T cells, measured at days 6, 7, 8 and 9
# Description: FIG. 9 illustrates the results of in vitro treatment of primary mouse CD8+ T cells with Aak1 inhibitor (iAak1 aka LP-935509) on PD-1 expression. Primary mouse CD8+ T cells were treated with the indicated concentration of LP-935509 and PD-1 expression was measured at days 6, 7, 8, and 9.
# [6] = system: EG7 cells; assay: Growth of EG7 cells in vitro; assay type: cell-based; conditions: concentrations as high as 2 μM; listed as iAak1
# Source text: FIG. 14 illustrates the results of Aak1 inhibitor (iAak1) on growth of EG7 cells in vitro.
# [7] = system: CD8+ T cells in EG7 tumor model; assay: PD-1 expression in tumor-infiltrating versus splenic CD8+ T cells in EG7 tumor model; assay type: in vivo, mice; conditions: oral gavage with twice weekly IP aPD1, vs DMSO, listed as iAak1
# Source text: as §1, with “FIG. 13” for “FIG. 12”, “on PD-1 expression in tumor-infiltrating versus splenic CD8+ T cells in an” for “on the growth of”, “EG7 tumor model.” for “EG7 tumors in mice.”, “received Aak1inh” for “received iAak1”
compound,measurement,setting,value
COc1ncccc1-c1cnn2ccc(N3CCN(C(=O)OC(C)C)CC3)nc12 [LP-935509],EG7 tumor growth in vivo,[1],increased
same,CD3+ T cell infiltration of the tumor,"[2]; A20 tumors, daily oral gavage with twice weekly IP aPD1, vs DMSO",moderate inhibit
same,A20 tumor growth in vivo,"[2]; daily oral gavage with twice weekly IP aPD1, from 10 days post inoculation, vs DMSO, listed as iAak1",increased; also recorded: enhanced
same,cell proliferation,[3],modest enhancement
same,cell proliferation,[3]; listed as iAak1,modestly enhances
same,PD-1 expression in CD8+ T cells,[4],modest increase; also recorded: increases
same,PD-1 expression,[5],transient increase
same,EG7 cell proliferation in vitro,[6],not observed to directly increase; also recorded: did not directly increase
same,PD-1 expression in CD8+ T cells isolated from tumors,[7],increased
